Columns and labels:
[1] = system: iPSC-CPs; assay: Calcium imaging using Fura-2 AM after carbachol; type: cell-based, human
From the text: (§1) FIG. 1. […] Key changes of hallmarks in each cluster are highlighted. […] GraphPad Prism 9 was used for statistical analysis. All data are presented as mean±sem.
(§2) Next, we examined the relative cell contraction capacities of iPSC-CPs versus iPSC-SMCs by measuring intracellular calcium transients after carbachol treatment. […] We also tested the pro-angiogenic potentials of iPSC-CPs.

[2] = system: iPSC-SMCs; assay: Calcium imaging using Fura-2 AM after carbachol; type: cell-based, human; details: iPSC-SMCs after carbachol treatment
From the text: as §1, §2

[3] = system: CPs; details: mice, cited from earlier work
[4] = system: iPSC-CPs; assay: PrestoBlue viability assay, sunitinib dose-response; type: cell-based, human; details: 72 hr, sunitinib 0 μM-100 μM
From the text: (§3) FIG. 1. Phenotypic characterization and functional assessment of stepwise differentiated iPSC-cardiac pericytes. A, A schematic showing stage-specific inhibition and activation of morphogens to generate pure epicardial cells (EPI) from human induced pluripotent stem cells (iPSCs). […] MPS, mid-primitive streak; LPM, lateral plate mesoderm; SM, splanchnic mesoderm; ST, septum transversum; PEO, pre-epicardial organ. B, Immunofluorescent images (ZO1 and WT1), flow cytometry (WT1) graphs (n=10 iPSC lines, 5M/5F), and quantitative data showing EPI induction efficiency by stepwise (i) and GiWiGi (ii) protocols. C, Quantitative reverse transcription PCR (RT-qPCR) results showing expression levels of canonical (WT1, TBX18, and TCF21) and mature (ALDH1A2, UPK3B, and ANXA8) markers of EPIs derived by both protocols. D, Single-cell ATAC sequencing (scATAC-seq) of EPIs generated by both GiWiGi (ii) and stepwise (iii) protocols are projected to that of human fetal heart cell clusters (i). […] H, Bright field and immunofluorescent images of iPSC-derived SMCs, cardiac fibroblasts (CFs), and endothelial cells (ECs).

[5] = system: iPSC-CPs; assay: Gene clustering / gene ontology analysis of treated iPSC-CPs (RNA-seq); type: cell-based, human; details: sunitinib (5 μM)/thalidomide (1 μM), 72 hr
[6] = system: primary and iPSC-CPs; assay: Thalidomide rescue of sunitinib-induced CP death (cell morphology); type: cell-based, human; details: sunitinib (5 μM)/thalidomide (1 μM), 72 hr
From the text: as §3

[7] = system: stepwise EPIs; assay: Differentiation of stepwise EPIs to iPSC-CPs with exogenous PDGF-BB (flow cytometry); type: cell-based, human; details: exogenous PDGF-BB in pericyte medium
From the text: as §1
Next, we differentiated stepwise EPIs in a commercial pericyte medium and observed that it took at least 12 days to generate iPSC-CPs (FIG. 1E) with low efficiency (FIG. 1F).
Day 11. EPI to Cardiac pericyte, CP. Aspects of the disclosure relate to producing cardiac pericytes through contacting a population of epicardial cells with a cardiac pericyte composition. As described herein, cardiac pericyte induction compositions may vary and generally comprise effective amounts of a PDGF pathway activator in a commercial pericyte medium (ScienCell cat #1201). An exemplary CP induction medium comprises 10 ng/ml PDGF-BB in pericyte medium.

C[N+](C)(C)CCOC(N)=O [carbachol]
calcium amplitude, iPSC-CPs versus iPSC-SMCs ([1]; after carbachol treatment): much smaller calcium amplitude | contraction pattern (intracellular calcium transients) ([1]; iPSC-CPs after carbachol treatment): stereotypical contraction pattern | contraction pattern (intracellular calcium transients) [2]: stereotypical contraction pattern

CCN(CC)CCNC(=O)c1c(C)[nH]c(/C=C2\C(=O)Nc3ccc(F)cc32)c1C [sunitinib]
coronary microvascular abnormalities and cardiac dysfunction, primary target cells ([3]; previous study): CPs were the primary targets | sunitinib-induced cell death, sensitivity of iPSC-CPs versus iPSC-CMs [4]: iPSC-CPs were more sensitive than iPSC-CMs

O=C1CCC(N2C(=O)c3ccccc3C2=O)C(=O)N1 (stereo not drawn) [thalidomide]
rescue from sunitinib-induced CP loss and cardiac dysfunction [3]: can rescue mice from sunitinib-induced CP loss and cardiac dysfunction | genes associated with cell cycle, pericyte function, and DNA damage [5]: restored genes associated with cell cycle, pericyte function, and DNA damage to a baseline level | rescue of CP death [6]: profoundly rescued CP death

B1: PDGF-BB: platelet-derived growth factor ligand predominantly secreted by ECs; PDGF pathway activator (protein, UniProt P01127 82-190, looked up)
Platelet-derived growth …: SLGSLTIAEPAMIAECKTRTEVFEISRRLIDRTNANFLVWPPCVEVQRCSGCCNNRNVQCRPTQVQLRPVQVRKIEIVRKKPIFKKATVTLEDHLACKCETVAAARPVT
modifications: homodimer
generation of iPSC-CPs (PDGFRβ+/CD146+/NG2+/CD13+) [7]: successfully generated pure iPSC-CPs
